Patent US12076694B2, “Method of removing protein-bound substances by electrically conductive polymer” (Ming Chi University of Technology, priority 2019, dated 2024)

What was measured:
[1] = biological target: BSA (Bos taurus, UniProt P02769); experiment: Protein binding ratio by centrifugal ultrafiltration (30-kDa cutoff); conditions: 50 ppm toxin, BSA 4-40 g L^−1 in PBS buffer
[2] = comparison value for the anticoagulant; cited from earlier work

Sequence of BSA (P02769 25-607): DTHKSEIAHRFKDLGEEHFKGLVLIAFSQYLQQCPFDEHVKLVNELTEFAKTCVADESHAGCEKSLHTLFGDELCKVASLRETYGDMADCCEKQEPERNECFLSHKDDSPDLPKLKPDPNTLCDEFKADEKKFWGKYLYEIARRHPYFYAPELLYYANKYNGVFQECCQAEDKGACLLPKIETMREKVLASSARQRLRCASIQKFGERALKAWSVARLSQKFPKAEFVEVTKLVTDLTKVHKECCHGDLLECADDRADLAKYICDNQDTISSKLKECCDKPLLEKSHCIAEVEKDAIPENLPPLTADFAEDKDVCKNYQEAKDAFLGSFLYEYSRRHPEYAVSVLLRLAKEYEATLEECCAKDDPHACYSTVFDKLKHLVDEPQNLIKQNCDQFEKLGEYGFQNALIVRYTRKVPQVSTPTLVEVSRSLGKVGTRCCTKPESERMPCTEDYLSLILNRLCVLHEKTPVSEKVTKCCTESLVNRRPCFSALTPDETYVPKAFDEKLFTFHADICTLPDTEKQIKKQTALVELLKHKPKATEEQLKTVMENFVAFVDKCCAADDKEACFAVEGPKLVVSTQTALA

Compound	estimated protein-binding ratio [1]	zeta potential [2]
Cc1ccc(O)cc1 [PC, p-cresol]	89.4-94.4%	–
heparin	–	−39 mV
O=C(O)CNC(=O)c1ccccc1 [HA, hippuric acid]	18.3-36.9%	–
CN1CC(=O)NC1=N [CRT, creatinine]	1.0-2.1%	–
